From PMC5560554, “Targeting of CDK9 with indirubin 3’-monoxime safely and durably reduces HIV viremia in chronically infected humanized mice” (PLoS ONE, 2017)
Several values for one entry are separate records, joined by “and”; a condition that tells them apart may be missing. Identical values can stand only once. Entries after “also recorded” stand apart in the source; their conditions may differ.

Tests used:
[1] = test system: CDK9; set-up: method as in PMID 16284457; conditions: cited from earlier work
[2] = test system: HIV-1 NL4-3; assay: Drug susceptibility assay in PHA-activated PBMCs (HIV p24 ELISA day 7); type: cell-based; conditions: PBMCs, NL4-3, day 7
Method: The ARTs tenofovir, raltegravir and indinavir were obtained from the NIH AIDS Research and Reference Reagent Program (Gaithersburg, MD). Drug susceptibility assays were performed in PBMCs as previously. Briefly, donor PBMCs were activated by culture with phytohemagglutinin (PHA) for 3 days. Activated PBMCs were infected with HIV (M.O.I of 0.001) for 2 hours in the absence of IM or ARTs, washed to remove non-adsorbed virus, and plated in culture medium containing IL-2 and various dilutions of IM and ARTs alone and in combination. On day 3, fresh medium with fresh drug was added to the cultures. On day 7, cultures were evaluated for HIV production by measuring HIV p24 levels in the culture supernatants by ELISA (PerkinElmer Life Sciences, Inc., Boston, Massachusetts). Data were normalized to p24 levels in drug untreated controls (100%) and EC50 values determined by fitting the data to sigmoidal dose-response (variable slope) curves using GraphPad Prism 5.0 software.
A potential use of CDK9 inhibitor for the treatment of HIV will probably be in combination with ARTs from other classes. We thus evaluated the antiviral interaction between IM and ARTs from the NRTI, integrase and protease inhibitor classes in PBMCs infectivity assays in vitro. We used the virus strain HIV-1 NL4-3 to ensure a robust viral replication in the assays. Although HIV-1 NL4-3 differs from HIV-1 BaL in usage of coreceptor for cell entry, it is expected to have similar sensitivity to the tested ARTs. […] These enhancements of ART potencies by IM are consistent with targeting of different steps of the HIV cycle by IM and the tested ARTs.

[3] = in vivo; cited from earlier work
[4] = Toxicity study in BALB/c mice (daily i.p. 14 days; blood counts and chemistry profiles); type: in vivo; conditions: daily i.p. doses of up to 20 mg/kg for 14 days
Method: IM (Cayman Chemicals, Ann Arbor, MI) was dissolved in 10% Cremophor EL (Sigma, St. Louis, MO). Adult, female BALB/c mice were treated with IM (2.5, 5, and 20 mg/kg; n = 5 per dose) or its vehicle (10% Cremophor EL; n = 5) daily, via intraperitoneal (i.p.) injections, for 14 days. We used mice from a single sex to reduce potential variability of the data, although gender is not expected to have an effect on the toxicity of IM. On day 14, animals were anesthesized with ketamine-xylazine (100-150mg/kg Ketamine + 10-16mg/kg Xylazine) and, after confirming (via toe pinch) that a deep surgical plane of anesthesia had been reached, blood was collected by cardiac puncture. Blood samples were submitted for measurements of blood chemistry profiles and of blood counts.
There is currently limited information on IM toxicity. […] To better evaluate the toxicity of IM we conducted toxicity studies following standard protocols. We used BALB/c mice because, unlike NSG mice, are fully immunocompetent and thus more suitable for assessing hematological toxicities. BALB/c mice were treated with IM (2.5, 5 and 20 mg/kg; n = 5 per dose) or its vehicle (n = 5) daily, via i.p. injections, for 14 days. […] Mice were monitored daily for morbidity and mortality. […] The other 19 mice remained healthy and had no evidence of morbidity. […] Creatinine levels below reference ranges may be due to sample hemolysis. […]

[5] = test system: primary lymphocytes; conditions: cited from earlier work
[6] = test system: HIV; set-up: method as in PMID 16284457; conditions: lymphocytes; read-out: EC50 for inhibition of HIV in vitro; cited from earlier work
[7] = Pharmacokinetics of IM in NSG mice (single i.p. injection, plasma by HPLC); type: in vivo; conditions: for Conc (plasma IM), individual mice: 40 mg/kg
Method: Fasting, female NSG mice (n = 16) were injected with 40 mg/kg IM via i.p. Blood samples were obtained pre-dose (30 minutes before compound injection) and at 5, 15, 30, 60, 120, 180, 240 and 300 minutes after injection using a sparse sampling design (n = 2 samples per mouse, n = 4 samples per time point). Separated plasma was further extracted and processed for analysis, and IM concentrations determined using HPLC analysis. In brief, sample processing involved extraction of plasma (30 μL) with 400 μL acetonitrile and 2 μg/mL internal standard ([…]). The sample was briefly vortexed and centrifuged (12 minutes, 6°C), with transfer of 400 μL of supernatant to a clean test tube. The sample was evaporated to dryness under nitrogen, reconstituted in 50 μL of methanol:water (75:25), and 20 μL was injected onto the column. The concentration of primary analyte (IM) and internal standard (IS) d4-estrone were determined using a Shimadzu Nexera X2 liquid chromatography system coupled with a SPD-M30A UV-VIS diode array detector. The liquid chromatography separation was performed on a Prodigy ODS-3V C18 column, 250 × 4.6 mm, 5 μm. The mobile phase consisted of 35% water and 65% Methanol (Optima LC-MS grade) delivered at a flow rate of 0.85 mL/min. Retention times for IM and IS were 13 and 15 minutes, respectively, with detection at 280 nm. The IM peak identity was confirmed using the complete 240–600 nm absorbance spectra. The standard concentration curve was linear over the range of 0.025 μg/mL– 4.0 μg/mL using regression plots of IM to internal standard peak area ratios versus drug concentrations derived with 1/x2 weighting. […] Non-compartmental pharmacokinetic parameters were determined from pooled average data at each time point using Phoenix WinNonlin v6.4 (Certara, St. Louis, MO).
We evaluated the pharmacokinetics of IM in NSG mice following a single i.p. injection of 40 mg/kg, a dose that inhibited plasma HIV RNA levels by 2 log 10 units in our previous study. Data (S1 Table) were plotted on concentration-time curves and pharmacokinetic parameter values determined (Fig 1). […] Thus, IM concentrations above HIV EC50 values are rapidly achieved and maintained for > 3 h following i.p. injection of 40 mg/kg IM.
Fig 1 Pharmacokinetics of IM in mice. NSG mice (n = 16) were i.p. injected with 40 mg/kg IM. Blood samples were obtained pre-dose and at 5, 15, 30, 60, 120, 180, 240 and 300 minutes after injection using a sparse sampling design (n = 2 samples per mouse, n = 4 samples per time point). Separated plasma was further extracted and processed for analysis, and IM concentrations were determined using HPLC analysis.

For `O=C1Nc2ccccc2/C1=C1/Nc2ccccc2/C1=N\O` [IM, Indirubin 3’-monoxime], the “inhibition of CDK9 relative to other CDKs” value [1] is given as “inhibits CDK9 more potently than other CDKs”, the P24 ([2]; IM alone (IND 0 nM), IND experiment, untreated control 55.00) is given as 4.00 ng/mL and the P24 ([2]; IM alone (RAL 0 nM), RAL experiment, untreated control 24.0) is given as 8.00 ng/mL. For the same compound, the P24 ([2]; IM alone (TDF 0 µM), TDF experiment, untreated control 50.0) was 10.0 ng/mL, the penetration in brain [3] was “favorable penetration in brain” and the “hematologic, renal or liver toxicity” value [4] was “not associated with hematologic, renal or liver toxicity; also recorded: no hematologic, liver or renal toxicity”. The cytotoxicity [5] was “not cytotoxic”, the EC50 [6] was 1000 nM and the “Conc (plasma IM), individual mice” value ([7]; 5 min after i.p. 40 mg/kg) was 1056 ng/mL and 1492 ng/mL and 1336 ng/mL and 54 ng/mL. The “Conc (plasma IM), individual mice” value ([7]; 15 min after i.p. 40 mg/kg) was 3005 ng/mL and 2975 ng/mL and 3996 ng/mL and 2773 ng/mL, the “Conc (plasma IM), individual mice” value ([7]; 30 min after i.p. 40 mg/kg) was 4918 ng/mL and 2550 ng/mL and 29 ng/mL and 3217 ng/mL and the “Conc (plasma IM), individual mice” value ([7]; 60 min after i.p. 40 mg/kg) was 2983 ng/mL and 2619 ng/mL and 2828 ng/mL and 2005 ng/mL. The “Conc (plasma IM), individual mice” value ([7]; 120 min after i.p. 40 mg/kg) was 4276 ng/mL and 1171 ng/mL and 1632 ng/mL and 14 ng/mL, the “Conc (plasma IM), individual mice” value ([7]; 180 min after i.p. 40 mg/kg) was 380 ng/mL and 1062 ng/mL and 56 ng/mL and 217 ng/mL and the “Conc (plasma IM), individual mice” value ([7]; 240 min after i.p. 40 mg/kg) was 285 ng/mL and 58 ng/mL and 14 ng/mL and 376 ng/mL. The “Conc (plasma IM), individual mice” value ([7]; 300 min after i.p. 40 mg/kg) was 44 ng/mL and 79 ng/mL and 83 ng/mL and 35 ng/mL, the AUC ([7]; single i.p. 40 mg/kg, plasma) was 370 ± 64 µg·min/mL and the “elimination t1/2” value ([7]; single i.p. 40 mg/kg, plasma) was 42.4 min. The “maximum concentration of IM in plasma (Cmax)” value ([7]; single i.p. 40 mg/kg, plasma) was 3190 ± 270 ng/mL and the Cmax ([7]; single i.p. 40 mg/kg, plasma, converted from μg/mL) was 11.5 ± 0.97 µM.
